This note sets out measurements from PubChem BioAssay (NCI).

Some test systems named below: COLO 205 colon; HCT-15 colon; HL-60(TB) leukemia; HS 578T breast; LOX IMVI melanoma; MALME-3M melanoma; NCI-H460 lung; PC-3 prostate; SNB-19 CNS; U251 CNS.
Holding throughout (assay): NCI anticancer screen, dose series, 48 h

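Grown in 96-well plates, cells were treated for 48 hours with each compound at five concentrations. Insufficient inhibition: endpoint recorded as highest concentration tested. At the GI50, growth is halved. TGI denotes the concentration required for complete inhibition of growth.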

As to `COc1cc(-n2cc(-c3ccc(F)cc3)[nH]c2=O)cc(OC)c1OC`, the GI50 was above 100000 nM in the experiment with COLO 205 colon; above 100000 nM in the experiment with HCT-15 colon; above 100000 nM in the experiment with HL-60(TB) leukemia; 69300 nM in the experiment on HS 578T breast; above 100000 nM in the experiment with LOX IMVI melanoma; above 100000 nM with MALME-3M melanoma. Also, the GI50 with NCI-H460 lung is above 100000 nM; with PC-3 prostate, above 100000 nM; in the experiment on SNB-19 CNS, above 100000 nM; with U251 CNS, 71600 nM. For the same compound, the TGI in the experiment on COLO 205 colon, in the experiment on HCT-15 colon, in the experiment with HL-60(TB) leukemia, in the experiment with HS 578T breast, in the experiment with LOX IMVI melanoma and in the experiment on MALME-3M melanoma was above 100000 nM throughout. In addition, the TGI in the experiment with NCI-H460 lung, in the experiment on PC-3 prostate, in the experiment on SNB-19 CNS and in the experiment with U251 CNS was above 100000 nM in each case.
Turning to `COc1cccc2c1C(=O)c1c(O)c3c(c(O)c1C2=O)C[C@](O)(C(=O)CO)C[C@H]3O[C@@H]1C[C@@H](NC(=O)CCCCCN(C)C2(c3ccc(F)cc3)CC3CCC2C3)[C@H](O)[C@@H](C)O1` (some centres undefined), the GI50 is 728 nM with COLO 205 colon; 2190 nM in the experiment on HCT-15 colon; 6590 nM in the experiment on HL-60(TB) leukemia; 8260 nM with HS 578T breast; 5170 nM in the experiment with LOX IMVI melanoma; 7850 nM in the experiment on MALME-3M melanoma. For the same compound, the GI50 in the experiment on NCI-H460 lung was 555 nM; in the experiment with PC-3 prostate it was 994 nM; in the experiment on SNB-19 CNS it was 6480 nM; with U251 CNS it was 739 nM. In addition, the TGI is 1650 nM with COLO 205 colon; 9110 nM in the experiment with HCT-15 colon; 16100 nM in the experiment on HL-60(TB) leukemia; 21600 nM in the experiment on HS 578T breast; 13100 nM in the experiment on LOX IMVI melanoma; 16900 nM in the experiment with MALME-3M melanoma. The TGI in the experiment with NCI-H460 lung is 1370 nM; in the experiment on PC-3 prostate, 2060 nM; in the experiment with SNB-19 CNS it was 14800 nM; in the experiment on U251 CNS it was 1490 nM.
As to `O=C1OCC2=C1C(c1cccc(Br)c1)c1cc3c(cc1N2CCO)CCC3` (centres undefined), the GI50 in the experiment with COLO 205 colon was 111 nM; with HCT-15 colon, 114 nM; in the experiment on HL-60(TB) leukemia it was 76.3 nM; in the experiment with HS 578T breast, 151 nM; in the experiment on LOX IMVI melanoma, 119 nM; with MALME-3M melanoma, 66 nM. For the same compound, the GI50 in the experiment with NCI-H460 lung is 101 nM; with PC-3 prostate, 86.4 nM; with SNB-19 CNS, 209 nM; in the experiment on U251 CNS, 108 nM. Besides, the TGI in the experiment on COLO 205 colon worked out at 263 nM; with HCT-15 colon it was 7140 nM; in the experiment on HL-60(TB) leukemia, 444 nM; in the experiment with HS 578T breast, 11400 nM; in the experiment with LOX IMVI melanoma, 7560 nM; in the experiment with MALME-3M melanoma, 12100 nM. The TGI was determined as 5190 nM in the experiment with NCI-H460 lung, 7100 nM in the experiment on PC-3 prostate, 9980 nM in the experiment with SNB-19 CNS and 1550 nM in the experiment on U251 CNS.
Consider `NCCNc1c2c(c(NCCN)c3[nH]ccc13)C(=O)c1ccccc1C2=O`, for which the GI50 was 280 nM in the experiment on COLO 205 colon; 845 nM in the experiment with HCT-15 colon; 132 nM in the experiment on HL-60(TB) leukemia; 12 nM in the experiment on HS 578T breast; 11.1 nM in the experiment on LOX IMVI melanoma; 177 nM with MALME-3M melanoma. For the same compound, the GI50 in the experiment with NCI-H460 lung is 766 nM; with PC-3 prostate, 631 nM; in the experiment on SNB-19 CNS it was 206 nM. Moreover, the TGI was found to be 5800 nM with COLO 205 colon; 14800 nM in the experiment on HCT-15 colon; 470 nM in the experiment on HL-60(TB) leukemia; 219 nM in the experiment with HS 578T breast; 242 nM in the experiment on LOX IMVI melanoma; 658 nM in the experiment on MALME-3M melanoma. Further, the TGI in the experiment with NCI-H460 lung came out at 2880 nM; in the experiment on PC-3 prostate, 2450 nM; in the experiment with SNB-19 CNS, 1120 nM; with U251 CNS, 842 nM.
As to `Nc1c(C(=O)Nc2ccncc2)sc2nc3c(cc12)CCCCCCCC3`, the GI50 with COLO 205 colon is 997 nM; with HCT-15 colon, 962 nM; in the experiment with HL-60(TB) leukemia, 948 nM; with HS 578T breast, 1080 nM; in the experiment with LOX IMVI melanoma, 845 nM; in the experiment on MALME-3M melanoma, 870 nM. The GI50 in the experiment with NCI-H460 lung is 995 nM; with PC-3 prostate, 866 nM; in the experiment on SNB-19 CNS, 960 nM; with U251 CNS it was 933 nM. In addition, the TGI with COLO 205 colon was determined as 2180 nM; in the experiment with HCT-15 colon it was 1800 nM; in the experiment on HL-60(TB) leukemia, 2190 nM; in the experiment on HS 578T breast, 2540 nM; in the experiment on LOX IMVI melanoma, 1560 nM; in the experiment with MALME-3M melanoma it was 1660 nM. In addition, the TGI with NCI-H460 lung was 1830 nM; in the experiment with PC-3 prostate, 1720 nM; with SNB-19 CNS, 1760 nM; in the experiment with U251 CNS, 1730 nM.
`COc1ccc(C(=O)/C=C/c2cc(-c3cc(OC)c(OC)c(OC)c3)n[nH]2)cc1OC`: the GI50 with COLO 205 colon was 1740 nM; in the experiment with HCT-15 colon it was 1270 nM; in the experiment on HL-60(TB) leukemia, 1440 nM; in the experiment with HS 578T breast, 2570 nM; in the experiment with LOX IMVI melanoma it was 1380 nM; with MALME-3M melanoma, 1990 nM. Besides, the GI50 with NCI-H460 lung is 1410 nM; in the experiment on PC-3 prostate it was 1360 nM; with SNB-19 CNS it was 1420 nM; in the experiment with U251 CNS, 1230 nM. For the same compound, the TGI amounted to 3210 nM in the experiment on COLO 205 colon; 2850 nM with HCT-15 colon; 4180 nM in the experiment with HL-60(TB) leukemia; 8200 nM in the experiment on HS 578T breast; 2760 nM in the experiment on LOX IMVI melanoma; 3680 nM in the experiment with MALME-3M melanoma. Besides, the TGI in the experiment on NCI-H460 lung is 3330 nM; with PC-3 prostate, 2800 nM; with SNB-19 CNS, 3010 nM; in the experiment with U251 CNS, 2480 nM.
Turning to `Cc1ccc(NC(=O)CC2CC2)cc1-c1ccc(C(=O)NCC2CC2)cc1`, the GI50 in the experiment on COLO 205 colon is above 25000 nM; with HCT-15 colon, above 25000 nM; in the experiment with HL-60(TB) leukemia, above 24200 nM; with HS 578T breast it was above 25000 nM; in the experiment on LOX IMVI melanoma, above 25000 nM; with MALME-3M melanoma, above 25000 nM. For the same compound, the GI50 in the experiment with NCI-H460 lung, in the experiment with PC-3 prostate, in the experiment with SNB-19 CNS and with U251 CNS was above 25000 nM in each case. The TGI in the experiment on COLO 205 colon, with HCT-15 colon, in the experiment with HL-60(TB) leukemia, with HS 578T breast, with LOX IMVI melanoma and with MALME-3M melanoma was above 25000 nM throughout. Moreover, the TGI in the experiment on NCI-H460 lung, in the experiment with PC-3 prostate, in the experiment with SNB-19 CNS and with U251 CNS was above 25000 nM throughout.
On to `Cc1c2c(C#N)nccc2c(C)c2c1c1ccccc1n2Cc1ccccc1`, for which the TGI in the experiment on COLO 205 colon, with HCT-15 colon, in the experiment with HL-60(TB) leukemia, with HS 578T breast, in the experiment on LOX IMVI melanoma and in the experiment on MALME-3M melanoma was above 100000 nM throughout. Further, the TGI in the experiment with NCI-H460 lung, in the experiment with PC-3 prostate, with SNB-19 CNS and in the experiment on U251 CNS was above 100000 nM each time.
